What was measured:
P. falciparum strain D6 = assay: SYBR Green growth inhibition assay, P. falciparum D6; format: cell-based, Plasmodium falciparum; conditions: pan-sensitive strain, 72 hr, asynchronous cultures in human erythrocytes; read-out: IC50 D6
Method: The in vitro activity of each compound in the aminoguanidine library was assessed against asynchronous cultures of Plasmodium falciparum parasites replicating within human erythrocytes (Tables 1-3). As the chemical development of robenidine was not discussed in its original publication in 1970^4 and limited structural information is available regarding its mechanism of action,^10 profiling was guided primarily by in vitro potency against the P. falciparum D6 strain cultured in human erythrocytes as described above.
(§1) The following parasite strains were used in this study and obtained through BEI Resources, NIAID, NIH. […] The culture medium used was RPMI-1640, supplemented with 25 mM HEPES buffer, 25 mg/L gentamicin sulfate, 45 mg/L hypoxanthine, 10 mM glucose, 2 mM glutamine, and 0.5% Albumax II (complete medium).^43 Cultures were maintained in a standard low oxygen atmosphere (5% O2, 5% CO2, 90% N2) in an environmental chamber and incubated at 37° C. Cultures were sub-passaged every 3-4 days into a fresh culture flask containing complete media and erythrocytes.
The aminoguanidine series was assessed for in vitro antiplasmodial activity using the fluorescence-based SYBR Green assay described previously by Smilkstein and co-workers.^38 Compounds were evaluated in quadruplicate in flat-bottomed Costar clear 96-well plates (Model #3585). A two-fold serial dilution of each compound was performed across the columns of the test plates starting with 20 μM and ending with a final untreated column to serve as control wells. Asynchronous parasite infected erythrocytes in growth media were added to each well for a total volume of 100 μL, final hematocrit of 2%, and initial parasitemia of 0.2%. […] Test plates were incubated for 72 hr at 37° C. in an environmental chamber with a controlled low oxygen atmosphere (5% O2, 5% CO2, 90% N2). After the incubation period, 100 μL SYBR Green I dye-detergent solution was added to each well, and the plates were incubated at ambient temperature and atmosphere in the dark for at least one hour. Fluorescence was read at 497 nm excitation and 520 nm emission bands using a Spectramax iD3 plate reader. Fluorescence readings were normalized with respect to the untreated control wells representing normal parasite growth and plotted against the logarithm of drug concentration.

[1] = test system: human hepatoma derived HepG2 cells; assay: HepG2 cytotoxicity assay (resazurin); format: cell-based; conditions: HepG2, 24 hr drug, 24 hr recovery
Method: In this assay, HepG2 cells were incubated with test compounds for 24 hours, followed by a 24-hour recovery period and subsequent staining to evaluate for cytotoxic effects with resazurin. The ratio of the resulting HepG2 IC50 value to the P. falciparum D6 IC50 value can be considered an ‘in vitro therapeutic index,’ or IVTI.
Compounds were prepared as 10 mM stock solutions in DMSO. […] HepG2 cells were added to each well of flat bottom 96-well tissue culture plates at an initial density of 2×10^4 cells per well, and an initial volume of 160 μL complete medium per well. After an overnight incubation at 37° C. to adhere the cells to the culture plates, 40 μL drug solutions in complete medium were applied to each well at a final concentration range of 0 to 200 μM across each plate. Drugs were tested in triplicate or quadruplicate. The cells were incubated for 24 hours at 37° C. and 5% CO2 with the drug solutions, which were then aspirated and replaced with 200 μL per well of complete medium for an additional 24 hour incubation under the same conditions. To each well was added 20 μL of resazurin (Alamar Blue) in PBS buffer to a final concentration of 10 μM, and the plates were incubated for 3 hours. Fluorescence was measured at 560 nm excitation and 590 nm emission bands using a Spectramax iD3 plate reader. Fluorescence readings were normalized with respect to the untreated control wells and plotted against the logarithm of drug concentration.

P. falciparum Dd2 = assay: SYBR Green growth inhibition assay, P. falciparum Dd2; format: cell-based, Plasmodium falciparum; conditions: multi-drug resistant strain, 72 hr; read-out: IC50 Dd2
Method: (§2) In addition to the drug-sensitive P. falciparum D6 strain, the aminoguanidines were assessed against three drug-resistant strains (Tables 1-3).
as §1
(§3) The aminoguanidine series was assessed for in vitro antiplasmodial activity using the fluorescence-based SYBR Green assay described previously by Smilkstein and co-workers.^38 Compounds were evaluated in quadruplicate in flat-bottomed Costar clear 96-well plates (Model #3585). A two-fold serial dilution of each compound was performed across the columns of the test plates starting with 20 μM and ending with a final untreated column to serve as control wells. Asynchronous parasite infected erythrocytes in growth media were added to each well for a total volume of 100 μL, final hematocrit of 2%, and initial parasitemia of 0.2%. The commercial malaria drugs atovaquone and chloroquine were used as control drugs. Test plates were incubated for 72 hr at 37° C. in an environmental chamber with a controlled low oxygen atmosphere (5% O2, 5% CO2, 90% N2). After the incubation period, 100 μL SYBR Green I dye-detergent solution was added to each well, and the plates were incubated at ambient temperature and atmosphere in the dark for at least one hour. Fluorescence was read at 497 nm excitation and 520 nm emission bands using a Spectramax iD3 plate reader. Fluorescence readings were normalized with respect to the untreated control wells representing normal parasite growth and plotted against the logarithm of drug concentration.

P. berghei = conditions: murine species P. berghei, 1970; cited from earlier work
Plasmodium yoelii = assay: modified 4-day Peters test, murine malaria; format: in vivo, mice
Method: In this modified 4-day Peters test,^41 mice were inoculated with parasites from a donor mouse (day 0), and then dosed orally with drugs on each of the subsequent four days (days 1-4). On day 5 of the experiment, the parasitemia for each mouse was determined microscopically by examining methanol-fixed and Giemsa-stained blood smears. The ED50 represents the interpolated dose of a compound at which parasitemia was suppressed to one half that of untreated controls. Similarly, the ED90 represents the dose at which parasitemia is suppressed ten-fold. Mice were considered cured of their infection if no parasites were detected in the blood 30 days from the first drug administration, and the non-recrudescence dose (NRD) represents the lowest dose to achieve a cure.
The in vivo ED50 and ED90 of selected aminoguanidines was measured using a modified 4-day Peters test. Female CF1 mice from Charles River Laboratories were inoculated intravenously with approximately 2.5-5.0×10^4 parasitized erythrocytes (murine malaria P. yoelii, Kenya strain MR4 MRA-428) from a donor mouse (experiment day zero). On the following four days (experiment days 1-4), solutions of the test compounds in PEG-300 (or PEG-300 only for control mice) were administered by oral gavage once daily. […] Parasitemia of each mouse was determined by microscopic examination of Giemsa stained blood smears on day 5. ED50 and ED90 values were assessed by generating dose-response curves relative to untreated controls using Graphpad Prism (v. 8). Mice were considered cured of malarial infection if they maintained 0% parasitemia at experiment day 30. The procedures involved, together with all matters relating to the care, handling, and housing of the animals used in this study, were approved by the Portland VA Medical Center Institutional Animal Care and Use Committee.

P. falciparum A6 = assay: SYBR Green growth inhibition assay, P. falciparum A6; format: cell-based, Plasmodium falciparum; conditions: mutant line resistant to respiratory antagonists, 72 hr; read-out: IC50 A6
Method: as §2, §1, §3

Toxoplasma gondii = conditions: cited from earlier work
Babesia microti = conditions: oral; cited from earlier work
P. falciparum Tm90-C2B = assay: SYBR Green growth inhibition assay, P. falciparum Tm90-C2B; format: cell-based, Plasmodium falciparum; conditions: multi-drug resistant clinical isolate, also atovaquone resistant, 72 hr; read-out: IC50 Tm90-C2B
Method: as §2, §1, §3

[2] = murine microsomal stability; conditions: from t1/2, assumed murine hepatic blood flow 90 mL/min/kg
Method: To investigate the relationship between the aminoguanidines' in vivo efficacy and their metabolic properties, the murine microsomal stability of a selection of aminoguanidines was evaluated (Table 6). Robenidine, 16, 21, 1, and the control compound ketanserin were incubated with pooled murine liver microsomes and monitored for degradation by LC/MS/MS for one hour. The concentration vs. time plot for each compound was used to determine its biological half-life (t1/2) and predicted intrinsic clearance (Clint).
Metabolic stability studies of selected aminoguanidines were performed at ChemPartner, Shanghai, China. Compounds were incubated at 37° C. and 1 μM concentration in murine liver microsomes (Corning) for one hour at a protein concentration of 0.5 mg/mL in potassium phosphate buffer at pH 7.4 containing 1.0 mM EDTA. The metabolic reaction was initiated by NADPH and quenched with ice-cold acetonitrile at 15 minute increments up to one hour.

[3] = oral gavage days 1-4, parasitemia day 5

N=C(N/N=C/c1ccc(Cl)cc1)N/N=C/c1ccc(Cl)cc1 [Robenidine]
IC50 (P. falciparum strain D6): 324 nM | IC50 [1]: 30000 nM | IC50 (P. falciparum Dd2): 814 nM | activity in vivo (P. berghei): moderate activity | P. yoelii ED50 (Plasmodium yoelii; [3]): 1.6 mg/kg/day | P. yoelii ED90 (Plasmodium yoelii; [3]): 4.9 mg/kg/day | P. yoelii NRD (non-recrudescence dose, cure dose) (Plasmodium yoelii; oral, doses up to 25 mg/kg/day, no parasites at day 30): >25 mg/kg/day | IC50 (P. falciparum A6): 410 nM | in vitro IC50 (Toxoplasma gondii): 0.03 µg/mL | murine in vivo non-recrudescence dose (Babesia microti): 100 mg/kg/day | IC50 (P. falciparum Tm90-C2B): 1320 nM | Predicted Clint [2]: 34.40 mL/min/kg

From patent US20220267258A1, “ROBENIDINE ANALOGS AS POTENT ANTIMALARIALS AGAINST DRUG-RESISTANT PLASMODIUM FALCIPARUM” (OREGON HEALTH & SCIENCE UNIVERSITY, priority 2021, published 2022)
